Experimental data: patent publication US20180256509A1, “Nanoparticle Compositions and Methods Thereof to Restore Vascular Integrity” (priority 2014, published 2018)

Tested on: C57BL mice infused with LPS
Assay: Endotoxemia study: vascular permeability (intravascular-extravascular intensity)
Assay type: in vivo
Details: 2 hours after LPS infusion; 10 mg/kg; FIG. 10
Description: In this study, the effect of treatment with curcumin-selenium nanoparticles was evaluated in animal models with endotoxemia. In particular, C57BL mice were first infused with 10 mg/kg of LPS (Lipopolysaccharides from E. coli serotype 0128:B12, Sigma Aldrich St. Louis, Mo.). The mice were then separated into 5 treatment groups: 1) no treatment; 2) control NP 10 mg/kg; 3) curcumin 10 mg/kg; 4) curcumin-NP 10 mg/kg (dose calculated based on curcumin concentration); and 5) curcumin-selenium-NP 10 mg/kg (dose calculated based on curcumin concentration). Treatments were administered 30 minutes after LPS infusion. No additional fluid therapies were applied, and food and water was available during observation time points. […] Vascular integrity for all treatment groups was also evaluated at baseline and 2 hours after LPS infusion. Additionally, other end points related to systemic and microvascular function (i.e., heart rate, arteriolar diameter, arteriolar blood flow, and functional capillary density) were evaluated for 4 of the treatment groups (no treatment, control NP 10, curcumin-NP 10 mg/kg, and curcumin-selenium-NP 10 mg/kg treatment groups) at baseline, and 2, 4, 6, 12, and 24 hours after LPS infusion.

Q: How did the “vascular permeability compared with the untreated and control NP treatment groups” value turn out when `COc1cc(/C=C/C(=O)CC(=O)/C=C/c2ccc(O)c(OC)c2)ccc1O` [curcumin] was run?
A: markedly less vascular permeability
